Like-named read-outs stand apart in the source and are kept apart here. Positions of bridges follow the written chain, without caps; N, C: chain ends. Non-standard residues stand in square brackets, D forms with d. Residues, ends and D or L forms follow the SMILES beside them. ξ: configuration not given here. *: point of attachment. Phe(3,4-Cl2) = N[C@@H](Cc1ccc(Cl)c(Cl)c1)C(=O)O; Tyr(3-I) = N[C@@H](Cc1ccc(O)c(I)c1)C(=O)O; Pro(4S-NH2) = N[C@@H]1CN[C@H](C(=O)O)C1; Bta = N[C@@H](Cc1csc2ccccc12)C(=O)O; Hyp = O=C(O)[C@@H]1C[C@@H](O)CN1; NMeF = CN[C@@H](Cc1ccccc1)C(=O)O; NMeNle = CCCC[C@H](NC)C(=O)O; NMeS = CN[C@@H](CO)C(=O)O; NMeA = CN[C@@H](C)C(=O)O; Dap = NC[C@H](N)C(=O)O; Bn = c1ccc(C*)cc1; ξC = NC(CS)C(=O)O; Sar = CNCC(=O)O
Legend:
[1] = biological target: T1, LK35.2-hPD-L1 cells / PE-labeled PD-1-Ig (Homo sapiens, UniProt Q9NZQ7); test: LK35.2-hPD-L1 cell binding high-content screening assay; type: cell-based; conditions: cluster symbol, read-out: CBA IC50 cluster
T1 construct: expressed in transfected cells; host or cells: LK35.2 mouse B cell line
T1 sequence (Q9NZQ7 19-290): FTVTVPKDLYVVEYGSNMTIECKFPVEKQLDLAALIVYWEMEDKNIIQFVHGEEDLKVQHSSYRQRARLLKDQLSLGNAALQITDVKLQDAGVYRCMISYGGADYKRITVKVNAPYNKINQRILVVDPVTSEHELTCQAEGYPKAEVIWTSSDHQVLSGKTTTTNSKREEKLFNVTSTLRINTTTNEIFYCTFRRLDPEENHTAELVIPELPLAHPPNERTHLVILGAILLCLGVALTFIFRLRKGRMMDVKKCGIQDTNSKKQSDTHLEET
Procedure, shortened: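 Compound effect on PD-1/PD-L1 binding is measured by imaging cell-associated phycoerythrin signal. Human PD-1-Ig (PE on Ig tag, 1 nM final) is applied with compound to a murine B cell line overexpressing human PD-L1 for 1 h at 37 °C in serum-containing RPMI.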

Human PD-L1/PD-1 = biological target: T2, Human PD-L1/PD-1 (Homo sapiens, UniProt Q9NZQ7); test: HTRF PD-1-Ig/PD-L1-His binding assay (human PD-L1); conditions: cluster symbol; read-out: HTRF IC50 cluster
T2 construct: made in house; host or cells: HEK293T
T2 sequence (Q9NZQ7 with tags, fused parts or gaps): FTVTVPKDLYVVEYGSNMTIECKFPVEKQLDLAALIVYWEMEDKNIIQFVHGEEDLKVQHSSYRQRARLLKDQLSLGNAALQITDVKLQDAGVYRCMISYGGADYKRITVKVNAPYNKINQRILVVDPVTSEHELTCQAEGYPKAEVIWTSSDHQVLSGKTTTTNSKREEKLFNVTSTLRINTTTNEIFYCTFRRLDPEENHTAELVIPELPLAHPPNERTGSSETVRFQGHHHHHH
Procedure, shortened: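 Soluble PD-1-Ig binding to PD-L1-His measured by HTRF in dPBS with 0.1% BSA and 0.05% Tween-20. Detection used europium cryptate anti-Ig antibody (1 nM final) and APC anti-His antibody (20 nM final) added on top of the binding reaction.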

[2] = cell binding assay, cell line not given
[3] = cell line of CBA not given (LK35.2-hPD-L1 or 293T-hPD-L1)

| IC50 [1, 2] [nM] | IC50 (Human PD-L1/PD-1) [nM] | IC50 [1, 3] [nM] | SMILES |
| --- | --- | --- | --- |
| 0.158 to 4.71 | 6.76 to 30.3 |  | CCCC[C@H]1C(=O)N2CCC[C@@H]2C(=O)N[C@@H](CC(=O)O)C(=O)N[C@@H](C(C)C)C(=O)N(C)[C@@H](Cc2ccccc2)C(=O)N[C@@H](Cc2ccc(O)cc2)C(=O)N(C)CC(=O)N[C@@H](Cc2c[nH]c3ccccc23)C(=O)N[C@@H](Cc2ccc(O)cc2)C(=O)N[C@@H](CC(C)C)C(=O)N[C@H](C(=O)NCC(N)=O)CSCC(=O)N[C@@H](Cc2ccccc2)C(=O)N(C)[C@@H](Cc2ccccc2)C(=O)N1C [Example 3560] (HELM PEPTIDE1{[O=C(C[*:3])[*:2]].F.[meF].[CCCC[C@@H](C(=O)[*:2])N(C)[*:1]].[dP].D.V.[meF].Y.[Sar].W.Y.L.C.G.[am]}$PEPTIDE1,PEPTIDE1,1:R3-14:R3$$$V2.0) |
| 4.78 to 72.9 | 0.385 to 6.74 |  | CCCC[C@H]1C(=O)N(C)[C@@H](CCCC)C(=O)N[C@@H](CCCNC(=N)N)C(=O)N[C@H](C(=O)NCC(N)=O)CSCC(=O)N[C@@H](Cc2ccc(Cl)c(Cl)c2)C(=O)N(C)[C@@H](C)C(=O)N[C@@H](CC(N)=O)C(=O)N2CCC[C@H]2C(=O)N[C@@H](CN)C(=O)N[C@@H](CC(C)C)C(=O)N2C[C@H](O)C[C@H]2C(=O)N[C@@H](Cc2c[nH]c3ccccc23)C(=O)N[C@@H](CO)C(=O)N[C@@H](Cc2c[nH]c3ccccc23)C(=O)N1C [Example 7063] ({CH2CO}-[Phe(3,4-Cl2)][NMeA]NP[Dap]L[Hyp]WSW[NMeNle][NMeNle]RCG-NH2; thioether N-14) |
| 4.78 to 72.9 | 6.76 to 30.3 |  | CCCC[C@H]1C(=O)N(C)[C@@H](CCCC)C(=O)N[C@@H](CCCNC(=N)N)C(=O)N[C@H](C(=O)NCC(N)=O)CSCC(=O)N[C@@H](Cc2ccc(O)cc2)C(=O)N(C)[C@@H](C)C(=O)N[C@@H](CCCCN)C(=O)N2CCC[C@H]2C(=O)N[C@@H](Cc2c[nH]cn2)C(=O)N[C@@H](CC(=O)O)C(=O)N2C[C@H](O)C[C@H]2C(=O)N[C@@H](Cc2c[nH]c3ccccc23)C(=O)N[C@@H](CO)C(=O)N[C@@H](Cc2c[nH]c3ccccc23)C(=O)N1C [Example 5102] ({CH2CO}-Y[NMeA]KPHD[Hyp]WSW[NMeNle][NMeNle]RCG-NH2; thioether N-14) |
| 0.158 to 4.71 | 0.385 to 6.74 |  | CCCC[C@H]1C(=O)N(C)[C@@H](CCCC)C(=O)N[C@@H](CN)C(=O)N[C@H](C(=O)NCC(N)=O)CSCC(=O)N[C@@H](Cc2ccc(O)cc2)C(=O)N(C)[C@@H](C)C(=O)N[C@@H](CC(N)=O)C(=O)N2CCC[C@H]2C(=O)N[C@@H](CN)C(=O)N[C@@H](CCC(=O)O)C(=O)N2C[C@H](O)C[C@H]2C(=O)N[C@@H](Cc2c[nH]c3ccccc23)C(=O)N[C@@H](CO)C(=O)N[C@@H](Cc2c[nH]c3ccccc23)C(=O)N1C [Example 5061] ({CH2CO}-Y[NMeA]NP[Dap]E[Hyp]WSW[NMeNle][NMeNle][Dap]CG-NH2; thioether N-14) |
|  | > 30.5 | 4.78 to 72.9 | CCCC[C@H]1C(=O)N(C)CC(=O)N[C@@H](CC(=O)O)C(=O)N[C@@H](C(C)C)C(=O)N(C)[C@@H](Cc2ccccc2)C(=O)N[C@@H](Cc2ccc(O)c(I)c2)C(=O)N(C)CC(=O)N[C@@H](Cc2c[nH]c3ccccc23)C(=O)N[C@@H](Cc2ccc(O)cc2)C(=O)N[C@@H](CC(C)C)C(=O)N[C@H](C(=O)NCC(N)=O)CSCC(=O)N[C@@H](Cc2ccccc2)C(=O)N(C)[C@@H](Cc2ccccc2)C(=O)N1C [Example 3111] ({CH2CO}-F[NMeF][NMeNle][Sar]DV[NMeF][Tyr(3-I)][Sar]WYLCG-NH2; thioether N-13) |
|  | 0.385 to 6.74 | 0.158 to 4.71 | CCCC[C@H]1C(=O)N(C)[C@@H](CCCC)C(=O)N[C@@H](CCCNC(=N)N)C(=O)N[C@H](C(=O)NCC(N)=O)CSCC(=O)N[C@@H](Cc2ccc(O)cc2)C(=O)N(C)[C@@H](C)C(=O)N[C@@H](CC(N)=O)C(=O)N2CCC[C@H]2C(=O)N[C@@H](Cc2cnc[nH]2)C(=O)N[C@@H](CCC(=O)O)C(=O)N2CCC[C@H]2C(=O)N[C@@H](Cc2c[nH]c3ccccc23)C(=O)N[C@@H](CO)C(=O)N[C@@H](Cc2c[nH]c3ccccc23)C(=O)N1C [Example 1090] ({CH2CO}-Y[NMeA]NPHEPWSW[NMeNle][NMeNle]RCG-NH2; thioether N-14) |
|  | 0.385 to 6.74 | 0.158 to 4.71 | CCCC[C@H]1C(=O)N(C)[C@@H](CCCC)C(=O)N[C@@H](CCCNC(=N)N)C(=O)N[C@H](C(=O)NCC(N)=O)CSCC(=O)N[C@@H](Cc2ccc(O)cc2)C(=O)N(C)[C@@H](C)C(=O)N[C@@H](CC(N)=O)C(=O)N2CCC[C@H]2C(=O)N[C@@H](Cc2cnc[nH]2)C(=O)N[C@@H](CC(C)C)C(=O)N2CCC[C@H]2C(=O)N[C@@H](Cc2c[nH]c3ccccc23)C(=O)N[C@@H](CO)C(=O)N[C@@H](Cc2csc3ccccc23)C(=O)N1C [Example 1014] ({CH2CO}-Y[NMeA]NPHLPWS[Bta][NMeNle][NMeNle]RCG-NH2; thioether N-14) |
|  | > 30.5 | > 74.3 | CCCC[C@H]1C(=O)N(C)[C@@H](CCCC)C(=O)N[C@@H](CCCNC(=N)N)C(=O)N[C@H](C(=O)NCC(N)=O)CSCC(=O)N[C@@H](Cc2ccccc2)C(=O)N(C)[C@@H](C)C(=O)N[C@@H](CC(C)C)C(=O)N2CCC[C@H]2C(=O)N[C@@H](Cc2cnc[nH]2)C(=O)N[C@@H](CC(C)C)C(=O)N(C)CC(=O)N[C@@H](Cc2c[nH]c3ccccc23)C(=O)N[C@@H](CO)C(=O)N[C@@H](Cc2c[nH]c3ccccc23)C(=O)N1C [Example 1082] ({CH2CO}-F[NMeA]LPHL[Sar]WSW[NMeNle][NMeNle]RCG-NH2; thioether N-14) |
|  | 6.76 to 30.3 | 0.158 to 4.71 | CCCC[C@H]1C(=O)N(C)[C@@H](CCCC)C(=O)N[C@@H](CCCNC(=N)N)C(=O)N[C@H](C(=O)NCC(N)=O)CSCC(=O)N[C@@H](Cc2ccc(O)cc2)C(=O)N(C)[C@@H](C)C(=O)N[C@@H](CC(N)=O)C(=O)N2CCC[C@H]2C(=O)N[C@@H](Cc2cnc[nH]2)C(=O)N[C@@H](CC(C)C)C(=O)N2C[C@@H](N)C[C@H]2C(=O)N[C@@H](Cc2c[nH]c3ccccc23)C(=O)N[C@@H](CO)C(=O)N[C@@H](Cc2csc3ccccc23)C(=O)N1C [Example 1037] ({CH2CO}-Y[NMeA]NPHL[Pro(4S-NH2)]WS[Bta][NMeNle][NMeNle]RCG-NH2; thioether N-14) |
| 4.78 to 72.9 | 6.76 to 30.3 |  | CCCC[C@H]1C(=O)N(C)[C@@H](COCc2ccccc2)C(=O)N[C@@H](CCCNC(=N)N)C(=O)N[C@H](C(=O)NCC(N)=O)CSCC(=O)N[C@@H](Cc2ccccc2)C(=O)N(C)[C@@H](C)C(=O)N[C@@H](CC(N)=O)C(=O)N2CCC[C@H]2C(=O)N[C@@H](Cc2cnc[nH]2)C(=O)N[C@@H](CC(C)C)C(=O)N(C)CC(=O)N[C@@H](Cc2c[nH]c3ccccc23)C(=O)N[C@@H](CO)C(=O)N[C@@H](Cc2c[nH]c3ccccc23)C(=O)N1C [Example 6016] ({CH2CO}-F[NMeA]NPHL[Sar]WSW[NMeNle][NMeS](Bn)RCG-NH2; thioether N-14) |
| 0.158 to 4.71 | 0.385 to 6.74 |  | CCCC[C@H]1C(=O)N(C)[C@@H](CCCC)C(=O)N[C@@H](CCCNC(=N)N)C(=O)NC(C(=O)NCC(N)=O)CSCC(=O)N[C@@H](Cc2ccc(O)cc2)C(=O)N(C)[C@@H](CO)C(=O)N[C@@H](CC(N)=O)C(=O)N2CCC[C@H]2C(=O)N[C@@H](Cc2cnc[nH]2)C(=O)N[C@@H](CC(C)C)C(=O)N2C[C@H](O)C[C@H]2C(=O)N[C@@H](Cc2c[nH]c3ccccc23)C(=O)N[C@@H](CO)C(=O)N[C@@H](Cc2csc3ccccc23)C(=O)N1C (stereo partly shown) [Example 9039] ({CH2CO}-Y[NMeS]NPHL[Hyp]WS[Bta][NMeNle][NMeNle]R[ξC]G-NH2; thioether N-14) |

— patent publication US9850283B2, “Macrocyclic inhibitors of the PD-1/PD-L1 and CD80(B7-1)/PD-L1 protein/protein interactions” (BRISTOL-MYERS SQUIBB COMPANY, priority 2013, dated 2017)
